# Measured values: patent publication US10829453B2, “Antagonists of the kappa opioid receptor” (University of Kansas, priority 2014, dated 2020)
# Structures can show the parent of a compound that is named as a salt.
# Columns and labels:
# [1] = target: T1, hKOR (Homo sapiens, UniProt P41145); assay: βArrestin2 recruitment (DiscoveRx PathHunter) assay; assay type: cell-based; conditions: for IC50: read-out: IC50 (nM) ± S.E.M. βarr2; for β arrestin 2 Inhibition (% U69,593 Stimulation) 1 μm: compound at 1 μm; for β arrestin 2 Inhibition (% U69,593 Stimulation) 1 μm / β arrestin 2 Inhibition (% U69,593 Stimulation) 10 Nm / β arrestin 2 Inhibition (% U69,593 Stimulation) 100 Nm: set concentration of U69,593; for β arrestin 2 Inhibition (% U69,593 Stimulation) 10 Nm: compound at 10 Nm; for β arrestin 2 Inhibition (% U69,593 Stimulation) 100 Nm: compound at 100 Nm
# T1 construct: host or cells: U2OS (PathHunter U2OS-hKOR-βarrestin2-DX), purchased engineered cell line
# T1 sequence (P41145 whole entry): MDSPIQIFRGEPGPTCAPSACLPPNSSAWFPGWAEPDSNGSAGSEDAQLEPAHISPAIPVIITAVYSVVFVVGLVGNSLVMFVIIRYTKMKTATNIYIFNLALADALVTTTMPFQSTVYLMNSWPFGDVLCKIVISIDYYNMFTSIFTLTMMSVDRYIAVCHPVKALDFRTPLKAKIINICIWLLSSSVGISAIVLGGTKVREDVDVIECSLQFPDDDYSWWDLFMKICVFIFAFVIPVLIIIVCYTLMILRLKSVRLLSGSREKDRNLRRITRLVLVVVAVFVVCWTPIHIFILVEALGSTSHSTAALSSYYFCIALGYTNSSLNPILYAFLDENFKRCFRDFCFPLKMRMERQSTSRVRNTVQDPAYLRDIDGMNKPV
# Protocol: (§1) Chinese hamster ovary (CHO) cells were virally transfected to express HA-tagged recombinant human kappa opioid receptors (CHO-hKOR cell line) and maintained in DMEM/F-12 media (Invitrogen) supplemented with 10% fetal bovine serum, 1% penicillin/streptomycin, and 500 μg/ml geneticin as described in Schmid, C. L.; Streicher, J. M.; Groer, C. E.; Munro, T. A.; Zhou, L.; Bohn, L. M. Functional selectivity of 6′-guanidinonaltrindole (6′-GNTI) at kappa opioid receptors in striatal neurons. […] A DiscoveRx PathHunter™ U2OS cell line expressing βarrestin2 and hKOR (U2OS-hKOR-βarrestin2-DX) was purchased from DiscoveRx Corporation (Fremont, Calif.) and maintained MEM with 10% fetal bovine serum, 1% penicillin/streptomycin, 500 μg/ml geneticin and 250 μg/ml hygromycin B. All cells were grown at 37° C. (5% CO2 and 95% relative humidity).
# Briefly, 5,000 cells/well were plated overnight in Opti-MEM containing 1% fetal bovine serum, 1% penicillin/streptomycin. Cells were pretreated with antagonist for 15 min at 37° C. followed by the addition of 1 μM U69,593 and a 90 minute incubation at 37° C. PathHunter™ detection reagent was added and cells incubated at room temperature for 60 minutes. Chemiluminescence was detected using a SpectraMax® M5e Multimode Plate Reader (Molecular Devices). βarrestin2 recruitment assays were also performed using an imaging platform (Cellomics) to visulalize translocation of a fluorescent protein tagged βarrestin2 to the membrane of KOR expressing U2OS cells.
# (§2) All compounds were run in parallel assays in 2-4 replicates per individual experiment. All studies were performed n≥3 independent experiments in multiple replicates. For determination of antagonist inhibition, each individual experiment was normalized to the percentage of maximal U69,593 stimulation. The efficacy and potency values were obtained from the averages of the nonlinear regression analysis performed on each individual curve and are reported as the mean±S.E.M.
# [2] = target: T2, human kappa opioid receptors (Homo sapiens, UniProt P41145); assay: [35S]GTPγS binding (G protein coupling) assay, antagonism of U69,593; assay type: biochemical; conditions: CHO-hKOR membranes, 100 nM U69,593, n ≥ 3; for IC50: read-out: IC50 (nM) ± S.E.M. [35S]GTPγS
# T2 construct: HA; expressed in transfected cells; host or cells: Chinese hamster ovary (CHO) cells, virally transfected
# T2 sequence (P41145 whole entry): as above
# Protocol: as §1
# Briefly, cells were serum starved for 1 hour and membranes were prepared. Each reaction was performed at room temperature and contained 15 μg of membrane protein, 40 μM GDP, ˜0.1 nM [^35S]GTPγS and increasing concentrations of compounds in assay buffer (50 mM Tris-HCl, pH 7.4, 100 mM NaCl, 5 mM MgCl2, 1 mM EDTA). Directly after the addition of test compounds, 100 nM U69,593 was added to yield a total volume of 200 μL. After 1 hour, reactions were quenched by rapid filtration through GF/B filters and radioactivity was counted with a TopCount NXT high throughput screening microplate scintillation and luminescence counter (PerkinElmer Life Sciences).
# as §2
# [3] = target: T2, human kappa opioid receptors; assay: In-cell western ERK1/2 phosphorylation, inhibition of U69,593 induced ERK phosphorylation; assay type: cell-based; conditions: hKOR-CHO cells, 100 nM U69,593, n ≥ 3; for IC50: read-out: IC50 (nM) ± S.E.M. ERK
# Protocol: as §1
# Briefly, hKOR-CHO cells were plated in 384-well plate at 15,000 cells per well and incubated at 37° C. overnight. After an hour serum starve, cells were treated with compound followed by the addition of 100 nM U69,593 and a 10 minute incubation at 37° C. Cells were fixed, permeabilized, blocked, and stained with primary antibodies for phosphorylated ERK1/2 and total-ERK1/2 (1:300 and 1:400, respectively) at 4° C. overnight. Cells then incubated with Li-Cor secondary antibodies (anti-rabbit IRDye800CW, 1:500; anti-mouse IRDye680LT, 1:1500) and imaged with the Odyssey Infrared Imager (Li-Cor Biosciences, Lincoln, Nebr.) at 700 and 800 nm.
# as §2
# [4] = Concentrations in plasma and brain tissue of mice after a single IP dose; conditions: single 10 mg/kg IP
# [5] = mouse brain, single administration; cited from earlier work
# [6] = test system: C57BL/6 mice; assay: Locomotor activity in open field, alone and against U50,488; assay type: in vivo
# [7] = U2OS-hKOR-βarrestin2-DX cells, 1 μM U69,593, n ≥ 3
Structure (SMILES),"IC50 [1, 7] [nM]",IC50 [2] [nM],IC50 [3] [nM],"β arrestin 2 Inhibition (% U69,593 Stimulation) 1 μm [1]","β arrestin 2 Inhibition (% U69,593 Stimulation) 10 Nm [1]","β arrestin 2 Inhibition (% U69,593 Stimulation) 100 Nm [1]",other results
"Cc1ccc(S(=O)(=O)N2CCc3cc(C(=O)NCCN(Cc4ccc(Br)cc4)C(C)(C)C)ccc3C2)cc1 [Compound 1m, N-(2-((4-Bromobenzyl)(tert-butyl)amino)ethyl)-2-tosyl-1,2,3,4-tetrahydroisoquinoline-6-carboxamide]",93 ± 30,2.9 ± 1.2,87 ± 17,,,,
"CCc1ccc(S(=O)(=O)N2CCc3cc(C(=O)NCCN(Cc4ccc(Br)cc4)C(C)C)ccc3C2)cc1 [Compound 1g, N-(2-((4-Bromobenzyl)(isopropyl)amino)ethyl)-2-((4-ethylphenyl)sulfonyl)-1,2,3,4-tetrahydroisoquinoline-6-carboxamide]",350 ± 68,33 ± 11,314 ± 56,,,,
"Cc1ccc(S(=O)(=O)N(C)Cc2ccc(C(=O)N(C)CCN(Cc3ccccc3)C(C)C)cc2)cc1 [Compound 1a, N-(2-(Benzyl(isopropyl)amino)ethyl)-N-methyl-4-((N,4-dimethylphenylsulfonamido)methyl)benzamide, reference compound]",,,,,,,"IC50 (nM) ± S.E.M. βarr2 [1, 7]: inactive; IC50 (nM) ± S.E.M. [35S]GTPγS [2]: inactive; IC50 (nM) ± S.E.M. ERK [3]: inactive"
"Oc1ccc2c3c1O[C@H]1c4[nH]c5c(c4C[C@@]4(O)[C@@H](C2)N(CC2CC2)CC[C@]314)C[C@@]1(O)[C@H]2Cc3ccc(O)c4c3[C@@]1(CCN2CC1CC1)[C@H]5O4 [norBNI, nor-binaltorphimine dihydrochloride, reference compound]",,,,"0.9 % U69,593 Stimulation","0.1 % U69,593 Stimulation","0.6 % U69,593 Stimulation",presence in brain tissue ([4]; after 72 h): still significantly present; time after which still detected in brain tissue [5]: more than 21 days
"COc1ccc(CN(CCNC(=O)c2ccc3c(c2)CCN(S(=O)(=O)c2ccc(C)cc2)C3)C(C)(C)C)cc1 [Compound 1b, N-(2-(tert-butyl(4-methoxybenzyl)amino)ethyl)-2-tosyl-1,2,3,4-tetrahydroisoquinoline-6-carboxamide]",,,,"0.0 % U69,593 Stimulation","0.0 % U69,593 Stimulation","0.8 % U69,593 Stimulation",
"Cc1cc(C)c(S(=O)(=O)N2CCc3cc(C(=O)NCCN(Cc4ccc(Br)cc4)C(C)(C)C)ccc3C2)c(C)c1 [Compound 1n, N-(2-((4-Bromobenzyl)(tert-butyl)amino)ethyl)-2-(mesitylsulfonyl)-1,2,3,4-tetrahydroisoquinoline-6-carboxamide]",710 ± 150,106 ± 16,1340,,,,
"Cc1ccc(S(=O)(=O)N2CCc3cc(C(=O)NCCN(Cc4ccc(Cl)cc4)C(C)(C)C)ccc3C2)cc1 [Compound 1l, N-(2-((4-Chlorobenzyl)(tert-butyl)amino)ethyl)-2-tosyl-1,2,3,4-tetrahydroisoquinoline-6-carboxamide]",,,,"1.5 % U69,593 Stimulation","29.9 % U69,593 Stimulation","0.4 % U69,593 Stimulation","clearance from brain tissue ([4]; 4h measurement): almost fully cleared; crossing of the blood brain barrier into the CNS ([4]; brain tissue, within 0.5 h): cross the blood brain barrier into the CNS at concentrations similar to norBNI; effect of pretreatment on U50,488 hypolocomotion ([6]; 10-minute pretreatment, 10 mg/kg i.p., vs vehicle pretreatment followed by U50,488, FIG. 3): prevents the development of U50,488 hypolocomotion; suppression of locomotor (ambulatory) activity compared to vehicle ([6]; C57BL/6 mice, open field, 1 hour, FIG. 2): not to suppress activity compared to vehicle"
"Cc1ccc(S(=O)(=O)N2CCc3cc(C(=O)NCCN(Cc4ccccc4)C(C)(C)C)ccc3C2)cc1 [Compound 1h, N-(2-(Benzyl(tert-butyl)amino)ethyl)-2-tosyl-1,2,3,4-tetrahydroisoquinoline-6-carboxamide]",104 ± 8.2,5.28 ± 0.6,49.1 ± 9.7,,,,
"Cc1cc(C)c(S(=O)(=O)N2CCc3cc(C(=O)NCCN(Cc4ccccc4)C(C)C)ccc3C2)c(C)c1 [Compound 1c, N-(2-(Benzyl(isopropyl)amino)ethyl)-2-(mesitylsulfonyl)-1,2,3,4-tetrahydroisoquinoline-6-carboxamide]",930 ± 150,113 ± 42,1120,,,,
